Legend:
[1] = system: incisional wounds; assay: Incisional scarring model, macroscopic and microscopic VAS scar assessment 70 days after wounding; assay type: in vivo, Male Sprague Dawley rats
Experimental: The guggulsterone (Z) was diluted in a solution containing 1% v/v ethanol (absolute ethanol, 200 proof, for molecular biology, purchased from Sigma-Aldrich) in phosphate buffered saline (PBS) to produce three solutions having concentrations as follows: • 1. 1 ng/100 μl (a 32 nM solution); • 2. 10 ng/100 μl (a 321 nM solution); and • 3. 1000 ng/100 μl (a 32 μM solution). At Day 0, male Sprague Dawley rats (200-250 g) were anaesthetised, shaved and wound sites were marked according to the Renovo rat incisional wounding template (2 wound model, 2×1 cm wounds at 5 cm from the base of the skull and 1 cm from the midline in each rat). […] The scars were assessed using standard macroscopic scar assessment sheets that include a Visual Analogue Scale (VAS) to quantify the quality of the scars. […] 70 days after wounding the experimental rats were killed, and the scars resulting from treated wounds and control wounds assessed both macroscopically and microscopically. The scars of the experimental rats were photographed and assessed using macroscopic scar assessment sheets. […] The best scars (typically of small width with colour, height and contour like normal skin) were scored towards the normal skin end of the scale (the left hand side of the VAS line) and bad scars (typically large width, raised with uneven contours and whiter colour) were scored towards the bad scar end of the scale (the right hand side of the VAS line). The marks were measured from the left hand side to provide the final value for the scar assessment in centimetres (to 1 decimal place). […] Histological slides were stained using Masson's trichrome, and scarring assessed, by two independent observers, using a microscopic visual analogue scale (VAS). […]

[2] = system: excisional wounds; assay: Excisional wound healing model, wound width and re-epithelialisation three days after wounding; assay type: in vivo, Male Sprague Dawley rats; settings: for wound width of excisional wounds: three days after wounding, p<0.05 vs controls
Experimental: The guggulsterone (Z) was diluted in a solution containing 1% v/v ethanol (absolute ethanol, 200 proof, for molecular biology, purchased from Sigma-Aldrich) in phosphate buffered saline (PBS) to produce three solutions having concentrations as follows: • 1. 1 ng/100 μl (a 32 nM solution); • 2. 10 ng/100 μl (a 321 nM solution); and • 3. 1000 ng/100 μl (a 32 μM solution). At day 0, Male Sprague Dawley rats (200-250 g) were anaesthetised, shaved and wound sites were marked according to the Renovo rat incisional and excisional wounding template (4 wound model, 2×1 cm wounds at 5 cm from the base of the skull and 1 cm from the midline in each rat and 2×5 mm excisions at 8.5 cm from the base of the skull and 1 cm from the midline of each rat). One hundred microlitres of Guggulsterone (Z) at 1 ng, 10 ng or 1000 ng in 1% v/v ethanol/PBS (EtOH/PBS), were injected intradermally at the target wound sites, A, B, C and D. The intradermal injections caused the formation of a raised bleb, which was then either immediately incised to form 1 cm long experimental wounds at wound positions A and B, or subject to a 5 mm punch biopsy, at wound positions C and D. A separate group of rats were wounded, without any injection, to act as the untreated Naïve control group in addition to the diluent injected control group. All treated wounds were re-injected again 1 day post-wounding with the appropriate treatment via either injection of […] to each of the two margins of the 1 cm wound, or via injection of 25 μl to each of the four quadrants of a 5 mm punch biopsy, and harvested at day 3 post-wounding. […] The wounds were assessed using standard macroscopic wound assessment sheets that include a Visual Analogue Scale (VAS) to quantify the quality of the wounds. The excisions and incisions were analysed microscopically, after histological processing by image analysis for re-epithelialisation (excisions only) and wound width (incisions only) to determine the role of Guggulsterone (Z) on early wound healing. […] The average wound width value was calculated from all of the wounds at each treatment group.

[3] = cited from earlier work
[4] = each concentration investigated (1, 10, 1000 ng/100 μl), 70 days post-wounding

Structure (SMILES): C/C=C1\C(=O)CC2C3CCC4=CC(=O)CC[C@]4(C)C3CC[C@]12C (stereo partly drawn) [Guggulsterone (Z), (17Z)-Pregna-4,17(20)-diene-3,16-dione-4,17(20)-cis-Pregnadiene-3,16-dione]
- inhibition of scarring, macroscopic analysis of scars [1, 4]: significantly inhibit scarring
- inhibition of scarring, microscopic analysis of scars [1, 4]: significantly inhibit scarring
- macroscopic appearance of treated scar versus naïve control scar (FIG. 3) ([1]; representative images, 70 days after wounding): considerably more difficult to detect
- wound width of excisional wounds ([2]; 1 ng/100 μl (3.2 pmoles per cm of wound)): significantly decreased wound width
- wound width of excisional wounds ([2]; 10 ng/100 μl (32 pmoles per cm of wound)): significantly decreased wound width
- promotion of wound contraction, by width of excisional wounds ([2]; three days after wound formation): able to promote wound contraction
- soluble in DMSO ([3]; DMSO, room temperature): 5 mg/mL
- soluble in ethanol ([3]; ethanol): soluble

Source: patent US20100144690A1, “MEDICAMENTS AND METHODS FOR PROMOTING WOUND CONTRACTION” (RENOVO LIMITED, priority 2006, published 2010)
